Measured values published in US20100286038A1, “FORMULATION CONTAINING CYCLIN-DEPENDENT KINASE INHIBITING COMPOUND AND METHOD OF TREATING TUMORS USING THE SAME” (priority 2007, published 2010).
Read-outs that look alike come from different tables or passages of the source.

Protocol: The contents of the IV bag were infused over a two hour period. […] Each patient was dosed on a 28 day cycle, comprising an infusion once a week for the first three weeks of the cycle on days 1, 8, and 15 of each cycle, with no dose administered in the week following the third dose.
[1] = Table V, 2 hour IV infusion, 0.66 mg/M^2
[2] = Table V, 2 hour IV infusion, 1.85 mg/M^2
[3] = Table V, 2 hour IV infusion, 2.59 mg/M^2
[4] = Table V, 2 hour IV infusion, 3.63 mg/M^2
[5] = Table V, 2 hour IV infusion, 3.7 mg/M^2
[6] = Table V, 2 hour IV infusion, 7.4 mg/M^2
[7] = Table V, 2 hour IV infusion, 14.8 mg/M^2
[8] = Table V, 2 hour IV infusion, 29.6 mg/M^2
[9] = Table V, 2 hour IV infusion, 41.4 mg/M^2
[10] = Table V, 2 hour IV infusion, […]^2
[11] = Table VI, 2 hour IV infusion, 1.85 mg/m^2, N 1
[12] = Table VI, 2 hour IV infusion, 3.7 mg/m^2, N 1
[13] = Table VI, 2 hour IV infusion, 7.4 mg/m^2, N 1
[14] = Table VI, 2 hour IV infusion, 14.8 mg/m^2, N 1
[15] = Table VI, 2 hour IV infusion, 29.6 mg/m^2, N 6
[16] = Table VI, 2 hour IV infusion, 41.4 mg/m^2, N 6
[17] = Table VI, 2 hour IV infusion, 50 mg/m^2, N 10
[18] = Table VI, 2 hour IV infusion, 58 mg/m^2, N 3
[19] = Table VII, 2 hour IV infusion, 1.85 mg/m^2, N 1
[20] = Table VII, 2 hour IV infusion, 3.7 mg/m^2, N 1
[21] = Table VII, 2 hour IV infusion, 7.4 mg/m^2, N 1
[22] = Table VII, 2 hour IV infusion, 14.8 mg/m^2, N 1
[23] = Table VII, 2 hour IV infusion, 29.6 mg/m^2, N 5
[24] = Table VII, 2 hour IV infusion, 41.4 mg/m^2, N 6
[25] = Table VII, 2 hour IV infusion, 50 mg/m^2, N 10
[26] = Table VII, 2 hour IV infusion, 58 mg/m^2, N 3
[27] = Table VIII cumulative data, Day 1, 2-hour IV infusion, 0.66 mg/m^2, N 1
[28] = Table VIII cumulative data, Day 1, 2-hour IV infusion, 1.32 mg/m^2, N 1
[29] = Table VIII cumulative data, Day 1, 2-hour IV infusion, 1.85 mg/m^2, N 5
[30] = Table VIII cumulative data, Day 1, 2-hour IV infusion, 1.85 mg/m^2, N = 4
[31] = Table VIII cumulative data, Day 1, 2-hour IV infusion, 2.59 mg/m^2, N 3
[32] = Table VIII cumulative data, Day 1, 2-hour IV infusion, 2.59 mg/m^2, N = 2
[33] = Table VIII cumulative data, Day 1, 2-hour IV infusion, 3.63 mg/m^2, N 7
[34] = Table VIII cumulative data, Day 1, 2-hour IV infusion, 3.63 mg/m^2, N = 6
[35] = Table VIII cumulative data, Day 1, 2-hour IV infusion, 3.7 mg/m^2, N 1
[36] = Table VIII cumulative data, Day 1, 2-hour IV infusion, 5.08 mg/m^2, N 3
[37] = Table VIII cumulative data, Day 1, 2-hour IV infusion, 7.11 mg/m^2, N 1
[38] = Table VIII cumulative data, Day 1, 2-hour IV infusion, 7.4 mg/m^2, N 1
[39] = Table VIII cumulative data, Day 1, 2-hour IV infusion, 14.8 mg/m^2, N 1
[40] = Table VIII cumulative data, Day 1, 2-hour IV infusion, 29.6 mg/m^2, N 6
[41] = Table VIII cumulative data, Day 1, 2-hour IV infusion, 29.6 mg/m^2, N = 5
[42] = Table VIII cumulative data, Day 1, 2-hour IV infusion, 41.4 mg/m^2, N 6
[43] = Table VIII cumulative data, Day 1, 2-hour IV infusion, 50 mg/m^2, N 10
[44] = Table VIII cumulative data, Day 1, 2-hour IV infusion, 58 mg/m^2, N 3
[45] = Table VIII cumulative data, Day 1, 2-hour IV infusion, […]^2, N 1

CCc1cnn2c(NCc3ccc[n+]([O-])c3)cc(N3CCCC[C@H]3CCO)nc12 [Formula II]
drug accumulation (1.85 mg/m^2 on days 1, 8, 15 of 28 day cycle): drug accumulation is not evident | dosage at which plasma levels of 25 nM (10 ng/mL) are available (2-hour infusions): greater than 1.32 mg/m^2 | AUC [1]: 32.1 ng·h/mL | CL [1]: 20.6 L/(hr m^2) | Cmax [1]: 18.6 ng/mL | t1/2 [1]: 1.48 h | Cmax (Table V, 2 hour IV infusion, 1.32 mg/M^2): 63.8 ng/mL | AUC [2]: 201.2 (38) ng hr/mL | CL [2]: 10.2 (36) L/(hr m^2) | Cmax [2]: 95.7 (26) ng/mL | t1/2 [2]: 2.29 (45) hours | AUC [3]: 213 (35) ng hr/mL | CL [3]: 12.9 (35) L/(hr m^2) | t1/2 [3]: 3.0 (1) hours | AUC [4]: 423 (91) ng hr/mL | CL [4]: 14.7 (91) L/(hr m^2) | Cmax [4]: 163 (63) ng/mL | t1/2 [4]: 2.56 (38) hours | AUC [5]: 336 ng·h/mL | CL [5]: 11.0 L/(hr m^2) | Cmax [5]: 136 ng/mL | t1/2 [5]: 2.75 h | AUC [6]: 972 ng·h/mL | CL [6]: 7.62 L/(hr m^2) | Cmax [6]: 353 ng/mL | t1/2 [6]: 2.86 h | AUC [7]: 1053 ng·h/mL | CL [7]: 14.1 L/(hr m^2) | Cmax [7]: 396 ng/mL | t1/2 [7]: 2.78 h | AUC [8]: 2434 (45) ng hr/mL | CL [8]: 14.0 (40) L/(hr m^2) | Cmax [8]: 890 (44) ng/mL | t1/2 [8]: 2.98 (11) hours | AUC [9]: 3041 (51) ng hr/mL | Cmax [9]: 1343 (48) ng/mL | t1/2 [9]: 2.80 (29) hours | CL [10]: 13.1 L/(hr m^2) | t1/2 [10]: 2.01 h | AUC(tf) Mean [11]: 134 ng·h/mL | Cmax Mean [11]: 62.5 ng/mL | Tmax Median [11]: 1 h | tf Median [11]: 8 h | AUC(tf) Mean [12]: 336 ng·h/mL | Cmax Mean [12]: 136 ng/mL | Tmax Median [12]: 2 h | tf Median [12]: 24 h | AUC(tf) Mean [13]: 970 ng·h/mL | Cmax Mean [13]: 353 ng/mL | Tmax Median [13]: 2 h | tf Median [13]: 24 h | AUC(tf) Mean [14]: 1050 ng·h/mL | Cmax Mean [14]: 396 ng/mL | Tmax Median [14]: 2 h | tf Median [14]: 24 h | AUC(tf) Mean [15]: 2040 ng·h/mL | Cmax Mean [15]: 890 ng/mL | Tmax Median [15]: 1 h | tf Median [15]: 24 h | AUC(tf) Mean [16]: 2870 ng·h/mL | Cmax Mean [16]: 1300 ng/mL | Tmax Median [16]: 2 h | tf Median [16]: 24 h | AUC(tf) Mean [17]: 4050 ng·h/mL | Cmax Mean [17]: 1820 ng/mL | Tmax Median [17]: 1.5 h | tf Median [17]: 24 h | AUC(tf) Mean [18]: 3290 ng·h/mL | Cmax Mean [18]: 1460 ng/mL | Tmax Median [18]: 1 h | tf Median [18]: 24 h | AUC(I) Mean [19]: 136 ng·h/mL | CL Mean [19]: 13.6 L/hr/m^2 | t½ Mean [19]: 1.42 h | AUC(I) Mean [20]: 336 ng·h/mL | CL Mean [20]: 11.0 L/hr/m^2 | t½ Mean [20]: 2.75 h | AUC(I) Mean [21]: 972 ng·h/mL | CL Mean [21]: 7.62 L/hr/m^2 | t½ Mean [21]: 2.86 h | AUC(I) Mean [22]: 1050 ng·h/mL | CL Mean [22]: 14.1 L/hr/m^2 | t½ Mean [22]: 2.78 h | AUC(I) Mean [23]: 2430 ng·h/mL | CL Mean [23]: 14.0 L/hr/m^2 | t½ Mean (Table VII, 2 hour IV infusion, 29.6 mg/m^2, n = 4): 2.98 h | AUC(I) Mean [24]: 2890 ng·h/mL | CL Mean [24]: 26.8 L/hr/m^2 | t½ Mean [24]: 2.84 h | AUC(I) Mean [25]: 4090 ng·h/mL | CL Mean [25]: 16.3 L/hr/m^2 | t½ Mean [25]: 2.90 h | AUC(I) Mean [26]: 3300 ng·h/mL | CL Mean [26]: 19.7 L/hr/m^2 | t½ Mean [26]: 3.15 h | AUC(I) Mean [27]: 32.1 ng·h/mL | CL Mean [27]: 20.6 L/hr/m^2 | Cmax Mean [27]: 18.6 ng/mL | Tmax Median [27]: 2 h | t½ Mean [27]: 1.48 h | Cmax Mean [28]: 63.8 ng/mL | Tmax Median [28]: 2 h | Cmax Mean [29]: 91.0 ng/mL | Tmax Median [29]: 2 h | AUC(I) Mean [30]: 201 ng·h/mL | CL Mean [30]: 10.2 L/hr/m^2 | t½ Mean [30]: 2.29 h | Cmax Mean [31]: 124 ng/mL | Tmax Median [31]: 1 h | AUC(I) Mean [32]: 213 ng·h/mL | CL Mean [32]: 12.9 L/hr/m^2 | t½ Mean [32]: 3.02 h | Cmax Mean [33]: 195 ng/mL | Tmax Median [33]: 1 h | AUC(I) Mean [34]: 446 ng·h/mL | CL Mean [34]: 11.3 L/hr/m^2 | t½ Mean [34]: 2.63 h | AUC(I) Mean [35]: 336 ng·h/mL | CL Mean [35]: 11.0 L/hr/m^2 | Cmax Mean [35]: 136 ng/mL | Tmax Median [35]: 2 h | t½ Mean [35]: 2.75 h | AUC(I) Mean [36]: 327 ng·h/mL | CL Mean [36]: 15.9 L/hr/m^2 | Cmax Mean [36]: 173 ng/mL | Tmax Median [36]: 2 h | t½ Mean [36]: 3.19 h | AUC(I) Mean [37]: 588 ng·h/mL | CL Mean [37]: 12.1 L/hr/m^2 | Cmax Mean [37]: 347 ng/mL | Tmax Median [37]: 1 h | t½ Mean [37]: 3.16 h | AUC(I) Mean [38]: 972 ng·h/mL | CL Mean [38]: 7.62 L/hr/m^2 | Cmax Mean [38]: 353 ng/mL | Tmax Median [38]: 2 h | t½ Mean [38]: 2.86 h | AUC(I) Mean [39]: 1050 ng·h/mL | CL Mean [39]: 14.1 L/hr/m^2 | Cmax Mean [39]: 396 ng/mL | Tmax Median [39]: 2 h | t½ Mean [39]: 2.78 h | Cmax Mean [40]: 890 ng/mL | Tmax Median [40]: 1 h | AUC(I) Mean [41]: 2430 ng·h/mL | CL Mean [41]: 14.0 L/hr/m^2 | t½ Mean [41]: 2.98 h | AUC(I) Mean [42]: 2890 ng·h/mL | CL Mean [42]: 26.8 L/hr/m^2 | Cmax Mean [42]: 1300 ng/mL | Tmax Median [42]: 2 h | t½ Mean [42]: 2.84 h | AUC(I) Mean [43]: 4090 ng·h/mL | CL Mean [43]: 16.3 L/hr/m^2 | Cmax Mean [43]: 1820 ng/mL | Tmax Median [43]: 1.5 h | t½ Mean [43]: 2.90 h | AUC(I) Mean [44]: 3300 ng·h/mL | CL Mean [44]: 19.7 L/hr/m^2 | Cmax Mean [44]: 1460 ng/mL | Tmax Median [44]: 1 h | t½ Mean [44]: 3.15 h | CL Mean [45]: 13.1 L/hr/m^2 | Tmax Median [45]: 1 h | t½ Mean [45]: 2.01 h | clearance versus dose (dosages of from […]^2 to 41.4 mg/m^2): clearance is dosage independent | exposure (AUC) versus dose (dosages of from […]^2 to 41.4 mg/m^2, day 1 and day 15): dose-proportional increases in exposure | AUC (two hour infusion, 3.7 mg/M^2): about 336 ng hr/mL | Cmax (two hour infusion, 3.7 mg/M^2): about 136 ng/ml | t1/2 (two hour infusion, 3.7 mg/M^2): about 2.75 hours | Cmax (two hour infusion, 7.4 mg/M^2): about 353 ng/ml | t1/2 (two hour infusion, 7.4 mg/M^2): about 2.86 hours | Cmax (two hour infusion, 14.8 mg/M^2): about 396 ng/ml | t1/2 (two hour infusion, 14.8 mg/M^2): about 2.78 hours | t1/2 (two hour infusion, 41.4 mg/M^2): about 2.8 hours | Cmax (two hour infusion, 50 mg/M^2): about 1820 ng/ml | t1/2 (two hour infusion, 50 mg/M^2): about 2.9 hours | Cmax (two hour infusion, 58 mg/M^2): about 1460 ng/ml | t1/2 (two hour infusion, 58 mg/M^2): about 3.2 hours
